Here are results for five molecules from PMC3131786 (Journal of Medicinal Chemistry, 2011).

The target of one data set is recombinant ATX (Homo sapiens, UniProt Q13822). In words: Choline release assay. Type of data set: biochemical. The note with it: for residual ATX activity: at maximal inhibition in the dose-response curve (Figure S3).
For data set [1] the following is noted: cited from earlier work.
The next data set deals with ATX. The note with it: ATX activity fully restored upon washing out the inhibitor; cited from earlier work.

For the molecule `O=C1S/C(=C\c2ccc(NCc3ccc(B(O)O)cc3)cc2)C(=O)N1Cc1ccc(F)cc1` [inhibitor 36], the “residual ATX activity” value at recombinant ATX was “no residual ATX activity”.

Consider `O=C(Nc1ccc(/C=C2\SC(=O)N(Cc3ccc(F)cc3)C2=O)cc1)c1ccc(B(O)O)cc1` [inhibitor 19], for which, on recombinant ATX, the “residual ATX activity” value is given as 10%. With lysophosphatidic acid [LPA], the “half-life of LPA in vivo” value in data set [1] is around 5 min. Take `O=C(Nc1ccc(B(O)O)cc1)c1ccc(/C=C2\SC(=O)N(Cc3ccc(F)cc3)C2=O)cc1` [inhibitor 17]: the “shape of dose-response curve” value at recombinant ATX (Figure S2, n=5) is reported as “biphasic curve”.

Turning to `O=C1S/C(=C\c2ccc(OCc3ccc(B(O)O)cc3)cc2)C(=O)N1Cc1ccc(F)cc1` [inhibitor 1, (Z)-4-[(4-{[3-(4-Fluorobenzyl)-2,4-dioxo-1,3-thiazolan-5-yliden]methyl}phenoxy)methyl]benzene Boronic Acid], the “reversibility of binding to ATX” value in the data set on ATX is given as “reversible”.
